Measured values: ChEMBL document CHEMBL1201862, “PubChem BioAssay data set” (2004)
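Each compound was tested at five concentrations against cells in 96-well plates for 48 hours. The concentration for 50% growth inhibition is given as GI50.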 Active and inactive are the calls of the source. Rule as the data show it: active = GI50 up to about 1.1 µM and inactive = higher.

How the values were obtained:
Assay in all cases: NCI-60 cell line screen, 48 h
A549 = tested on: A549
CAKI-1 = tested on: CAKI-1
EKVX = tested on: EKVX
HCC 2998 = tested on: HCC 2998
HL-60 = tested on: HL-60
NCI-H23 = tested on: NCI-H23
NCI-H460 = tested on: NCI-H460
OVCAR-3 = tested on: OVCAR-3
RXF 393 = tested on: RXF 393
SK-MEL-28 = tested on: SK-MEL-28
SK-OV-3 = tested on: SK-OV-3
SN12C = tested on: SN12C
SNB-19 = tested on: SNB-19
SNB-75 = tested on: SNB-75
SW-620 = tested on: SW-620
UACC-257 = tested on: UACC-257
UO-31 = tested on: UO-31
K562 = tested on: K562
LOX IMVI = tested on: LOX IMVI
TK-10 = tested on: TK-10

Measured: GI50

N#C[C@H](c1ccccn1)c1nc2ccccc2nc1Cl
inactive: A549 > 100 µM | CAKI-1 > 100 µM | EKVX > 100 µM | HCC 2998 > 100 µM | HL-60 74.6 µM | NCI-H23 > 100 µM | NCI-H460 > 100 µM | OVCAR-3 > 100 µM | RXF 393 > 100 µM | SK-MEL-28 > 100 µM | SK-OV-3 > 100 µM | SN12C > 100 µM | SNB-19 > 100 µM | SNB-75 > 100 µM | SW-620 > 100 µM | UACC-257 > 100 µM | UO-31 > 100 µM

CC(C)N(C)C(=O)C12C3C4C1C1C2C3C41C#N (stereo not drawn)
inactive: A549 > 100 µM | CAKI-1 > 100 µM | EKVX > 100 µM | HCC 2998 > 100 µM | HL-60 > 100 µM | K562 > 100 µM | LOX IMVI > 100 µM | NCI-H23 > 100 µM | NCI-H460 > 100 µM | OVCAR-3 > 100 µM | RXF 393 > 100 µM | SK-MEL-28 > 100 µM | SN12C > 100 µM | SNB-19 > 100 µM | SNB-75 7.64 µM | SW-620 > 100 µM | TK-10 > 100 µM | UACC-257 > 100 µM | UO-31 > 100 µM

O=S(O)CCCSSSCCCS(=O)O
inactive: EKVX > 100 µM | HCC 2998 > 100 µM | HL-60 > 100 µM | K562 > 100 µM | LOX IMVI > 100 µM | NCI-H23 > 100 µM | NCI-H460 > 100 µM | OVCAR-3 > 100 µM | RXF 393 > 100 µM | SK-MEL-28 > 100 µM | SK-OV-3 > 100 µM | SN12C > 100 µM | SNB-19 > 100 µM | SNB-75 > 100 µM | TK-10 > 100 µM | UACC-257 > 100 µM | UO-31 > 100 µM

Cc1nc2ccccc2c(=O)n1CC(=O)O
inactive: A549 > 100 µM | CAKI-1 > 100 µM | EKVX > 100 µM | HCC 2998 > 100 µM | HL-60 > 100 µM | K562 > 100 µM | LOX IMVI > 100 µM | NCI-H23 > 100 µM | NCI-H460 > 100 µM | OVCAR-3 > 100 µM | RXF 393 > 100 µM | SK-MEL-28 > 100 µM | SK-OV-3 > 100 µM | SN12C > 100 µM | SNB-19 > 100 µM | SNB-75 > 100 µM | SW-620 > 100 µM | UACC-257 > 100 µM | UO-31 > 100 µM

Cc1cc(S(=O)(=O)NC2=NCc3nc4ccccc4n32)c(S)cc1Cl
inactive: A549 25.8 µM | CAKI-1 35.2 µM | EKVX 29.3 µM | HCC 2998 17.2 µM | HL-60 24.2 µM | K562 42.9 µM | LOX IMVI 18.4 µM | NCI-H460 27.7 µM | OVCAR-3 19.9 µM | RXF 393 12.9 µM | SK-MEL-28 30.5 µM | SN12C 23.5 µM | SNB-19 32.3 µM | SNB-75 24.2 µM | SW-620 47.6 µM | TK-10 38.8 µM | UACC-257 24.2 µM | UO-31 26.4 µM

O=C(c1ccccc1)c1cc(Cl)ccc1NCn1nnc2ccccc21
inactive: A549 46 µM | EKVX > 100 µM | HCC 2998 47.8 µM | HL-60 25.2 µM | K562 34.6 µM | LOX IMVI 73.3 µM | NCI-H23 > 100 µM | NCI-H460 69.5 µM | OVCAR-3 93.3 µM | RXF 393 30.3 µM | SK-OV-3 47.8 µM | SN12C 76.4 µM | SNB-19 > 100 µM | SNB-75 35.1 µM | SW-620 48.2 µM | TK-10 81.1 µM | UACC-257 55 µM | UO-31 35.8 µM

CN(C)CCCn1c(-c2ccc(Br)cc2)cs/c1=N\c1ccccc1
inactive: A549 17.5 µM | CAKI-1 10.2 µM | EKVX 10.8 µM | HCC 2998 5.38 µM | HL-60 1.4 µM | K562 11.6 µM | NCI-H23 10.7 µM | NCI-H460 12.2 µM | OVCAR-3 10.6 µM | RXF 393 12.9 µM | SK-MEL-28 18.5 µM | SK-OV-3 18.3 µM | SN12C 18.5 µM | SNB-19 14.5 µM | SNB-75 15.8 µM | TK-10 15.9 µM | UACC-257 14.6 µM | UO-31 10.4 µM

CCOC(O)C(F)(F)F (stereo not drawn)
inactive: A549 > 100 µM | HCC 2998 > 100 µM | HL-60 > 100 µM | K562 > 100 µM | LOX IMVI > 100 µM | NCI-H23 > 100 µM | NCI-H460 > 100 µM | OVCAR-3 > 100 µM | RXF 393 > 100 µM | SK-MEL-28 > 100 µM | SK-OV-3 > 100 µM | SN12C > 100 µM | SNB-19 > 100 µM | SNB-75 > 100 µM | SW-620 > 100 µM | TK-10 > 100 µM | UACC-257 > 100 µM | UO-31 > 100 µM

CCOC(=O)c1csc(NC(=O)CCN2CCN(C)CC2)n1
inactive: A549 > 100 µM | CAKI-1 64.1 µM | HCC 2998 > 100 µM | HL-60 75.5 µM | K562 69.8 µM | LOX IMVI > 100 µM | NCI-H23 > 100 µM | NCI-H460 > 100 µM | OVCAR-3 > 100 µM | RXF 393 > 100 µM | SK-MEL-28 > 100 µM | SK-OV-3 > 100 µM | SNB-19 > 100 µM | SNB-75 > 100 µM | SW-620 43.2 µM | TK-10 > 100 µM | UACC-257 > 100 µM | UO-31 > 100 µM

c1ccc2c(c1)c1c(n2CCOCCCN2CCCCC2)CCCC1
inactive: A549 18.4 µM | CAKI-1 18 µM | EKVX 17.1 µM | HCC 2998 18 µM | HL-60 10.1 µM | K562 14 µM | NCI-H23 17.6 µM | NCI-H460 13.9 µM | OVCAR-3 13.2 µM | RXF 393 11.4 µM | SK-MEL-28 20.1 µM | SN12C 13.6 µM | SNB-19 27.5 µM | SNB-75 16 µM | SW-620 19.5 µM | TK-10 16.4 µM | UACC-257 16.8 µM | UO-31 12.6 µM

CC12CCC3C(CCC4CC(OC(=O)Cc5ccc(N(CCCl)CCCl)cc5)CCC43C)C1CCC(=O)N2 (stereo not drawn)
inactive: A549 15.5 µM | CAKI-1 15.9 µM | EKVX 16.4 µM | HCC 2998 18.9 µM | HL-60 4.84 µM | K562 16.9 µM | NCI-H23 13 µM | NCI-H460 7.26 µM | OVCAR-3 18.2 µM | RXF 393 14.5 µM | SK-MEL-28 17.1 µM | SK-OV-3 18 µM | SN12C 15.6 µM | SNB-19 18.3 µM | SNB-75 15 µM | SW-620 14 µM | TK-10 20.6 µM | UO-31 19.7 µM
